Laboratory results taken from US20110305707A1, “COMPOSITIONS AND METHODS FOR TREATING CANCER” (THE CLEVELAND CLINIC FOUNDATION, priority 2010, published 2011).

Legend:
[1] = Plasma levels of apoA1 after subcutaneous apoA1 injection every other day; format: in vivo, mice; settings: apoA1 s.c. every other day, steady state, days 22-24
Method: In another part of this Example, apoA1 was injected subcutaneously into mice every other day and the plasma levels of apoA1 at steady state (shown in FIG. 9 for says 22-24) were monitored. […] This approximates the plasma levels of apoA1 in humans.

[2] = system: F10L_B16 Melanoma Tumor cells; test: F10L_B16 melanoma in apoA1-KO mice given human ApoA1 or saline throughout the study (xenogen imaging, survival); format: in vivo; settings: vs normal saline
Method: In another part of this Example, human ApoA1 or normal saline (control) was given to apoA1-KO mice throughout duration of the study following the dosing schedule of 15 mg s.c. QOD. 10^5 F10L_B16 Melanoma Tumor cells were injected subcutaneously into the dorsum of the mice. Total tumor burden and metastases were quantified by xenogen imaging. […] Images of the mice 16 days post tumor injection are shown in FIG. 11, which show much greater tumor growth in the saline treated mice. Images of the mice 21 days post tumor injection are shown in FIG. 12, which show much greater tumor growth in the saline treated mice.

malignant melanoma = test: Malignant melanoma animal model, apoA1 given as therapy after tumor growth is established; format: in vivo, mice
Method: In another part of this Example, the impact of giving apoA1 as a therapy is evaluated after the tumor growth is established and metastases are detectable. The same malignant melanoma animal model is employed. ApoA1 injections were started one week after tumor injection. […] In the insets for both 16A and 16B, note that apoA1 injections actually shrink peak tumor volume by ˜50% within 1-2 weeks of therapy. A similar ˜50% reduction in peak metastases burden is also noted in the apoA1 treated mice.
In similar experiments, ApoA2 was given in the same dosing strategy as apoA1 vs normal saline (S) control.

[3] = 15 mg s.c. QOD throughout study
[4] = ApoA1 injections started one week after tumor injection
[5] = ApoA2 given in the same dosing strategy, vs normal saline

With apolipoprotein A-1 [ApoA1] the “plasma level of apoA1” value [1] was 75 to 175 mg/dL, the “metastases formation (xenogen imaging)” value [2, 3] was “blocks tumor growth and metastases formation” and the “tumor growth (total tumor burden, xenogen imaging)” value [2, 3] was “blocks tumor growth”. The survival ([2]; 15 mg s.c. QOD) was “much greater survival”, the metastases formation (malignant melanoma; [4]) was “dramatically reduced” and the overall tumor growth (malignant melanoma; [4]) was “dramatically reduced”. For the same substance, the “potency at reducing cancer growth compared with ApoA2” value (malignant melanoma; [5]) was “markedly more potent”, the “potency at reducing metastases formation compared with ApoA2” value (malignant melanoma; [5]) was “markedly more potent” and the “reduction in peak metastases burden” value (malignant melanoma; injections started one week after tumor injection) was ~50%. The “shrinkage of peak tumor volume” value (malignant melanoma; injections started one week after tumor injection, within 1-2 weeks of therapy) was ~50%.
